The target in this assay is human MCH-1 receptor (Homo sapiens (Human), UniProt Q99705). The experiment in a line: Binding Assay for Human Melanin-Concentrating Hormone (MCH-1) Receptor. The note with it: radioligand displacement, membranes from CHO-K1 cells expressing human MCH-1 receptor; Ki from IC50 by Cheng Prusoff equation; read-out: MCH1 Ki. How it is done:
Binding Assay for Human Melanin-Concentrating Hormone (MCH-1) Receptor
Evaluation of the affinity of compounds for the human MCH-1 receptor was accomplished using 4-(3,4,5-tritritiumbenzyloxy)-1-(1-(2-(pyrrolidin-1-yl)ethyl)-1H-indazol-5-yl)pyridin-2(1H)-one and membranes prepared from stable CHO-K1 cells expressing the human MCH-1 receptor obtained from Euroscreen (Batch 1138). Cell membrane homogenates (8.92 μg protein) were incubated for 60 min at 25° C. with 1.4 nM of the [^3H]-labeled compound in the absence or presence of the test compound in 50 mM Tris-HCl buffer, pH 7.4. Nonspecific binding was determined in the presence of 50 μM 1-(5-(4-cyanophenyl)bicyclo[3.1.0]hexan-2-yl)-3-(4-fluoro-3-(trifluoromethyl)phenyl)-1-(3-(4-methylpiperazin-1-yl)propyl)urea. Following incubation, the samples were filtered rapidly under vacuum through Skatron 11731 filters, pre-soaked in 0.5% polyethylenimine, and washed with ice-cold 50 mM Tris-HCl buffer, pH 7.4, (wash setting 9,9,0) using a Skatron cell harvester. The filters were counted for radioactivity in a liquid scintillation counter (Tri-Carb 2100TR, Packard) using a scintillation cocktail (Ultima Gold MV, Perkin Elmer).
The results are expressed as a percent inhibition of the control radioligand specific binding. The IC50 value (concentration causing a half-maximal inhibition of control specific binding) and Hill coefficient (nH) were determined by non-linear regression analysis of the competition curve using Hill equation curve fitting. The inhibition constant (Ki) was calculated from the Cheng Prusoff equation: (Ki=IC50/(1+(L/KD)), where L=concentration of radioligand in the assay, and KD=affinity of the radioligand for the receptor.

Each structure is given as a SMILES string. Structures can show the parent of a compound that is named as a salt.

Sequence of human MCH-1 receptor (Q99705 whole entry): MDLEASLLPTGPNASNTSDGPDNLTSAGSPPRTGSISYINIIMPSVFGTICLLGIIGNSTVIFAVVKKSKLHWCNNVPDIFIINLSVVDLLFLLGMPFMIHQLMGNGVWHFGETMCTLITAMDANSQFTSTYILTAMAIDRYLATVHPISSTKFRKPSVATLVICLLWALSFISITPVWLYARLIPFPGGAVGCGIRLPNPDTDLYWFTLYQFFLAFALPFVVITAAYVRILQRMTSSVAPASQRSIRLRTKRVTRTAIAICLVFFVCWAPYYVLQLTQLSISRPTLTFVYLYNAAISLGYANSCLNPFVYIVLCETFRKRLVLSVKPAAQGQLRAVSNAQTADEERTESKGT

On to `Cn1c2c(c3ccc(-n4ccc(-c5ccc(C(F)(F)F)nn5)cc4=O)cc31)CCNCC2` [Example 2, 1-(6-Methyl-1,2,3,4,5,6-hexahydroazepino[4,5-b]indol-8-yl)-4-(6-(trifluoromethyl)pyridazin-3-yl)pyridin-2(1H)-one dihydrochloride], for which the Ki turned out to be 14.4 nM. Regarding `Cn1c2c(c3ccc(-n4ccc(-c5ccc(C(F)(F)F)cn5)cc4=O)cc31)CCNCC2` [Example 3, 1-(6-Methyl-1,2,3,4,5,6-hexahydroazepino[4,5-b]indol-8-yl)-4-(5-(trifluoromethyl)pyridin-2-yl)pyridin-2(1H)-one dihydrochloride], the Ki was 10.1 nM. `Cn1c2c(c3ccc(-n4ccc(-c5ccc(C(F)(F)F)nc5)cc4=O)cc31)CCNCC2` [Example 4, 1-(6-Methyl-1,2,3,4,5,6-hexahydroazepino[4,5-b]indol-8-yl)-4-(6-(trifluoromethyl)pyridin-3-yl)pyridin-2(1H)-one dihydrochloride]: the Ki worked out at 7.1 nM.

On to `Cn1c2c(c3ccc(-n4ccc(OCc5ccc(C(F)(F)F)nc5)cc4=O)cc31)CCNCC2` [Example 5, 1-(6-Methyl-1,2,3,4,5,6-hexahydroazepino[4,5-b]indol-8-yl)-4-((6-(trifluoromethyl)pyridin-3-yl)methoxy)pyridin-2(1H)-one dihydrochloride], for which the Ki was determined as 11.8 nM.

For `Cn1c2c(c3ccc(-n4ccc(-c5cnc(C(F)(F)F)nc5)cc4=O)cc31)CCNCC2` [Example 6, 1-(6-Methyl-1,2,3,4,5,6-hexahydroazepino[4,5-b]indol-8-yl)-4-(2-(trifluoromethyl)pyrimidin-5-yl)pyridin-2(1H)-one dihydrochloride], the inhibitory constant (Ki) amounted to 131 nM. With `O=c1cc(-c2ccc(C(F)(F)F)nn2)ccn1-c1ccc2c3c([nH]c2c1)CCNCC3` [Example 8, 1-(1,2,3,4,5,6-Hexahydroazepino[4,5-b]indol-8-yl)-4-(6-(trifluoromethyl)pyridazin-3-yl)pyridin-2(1H)-one dihydrochloride], the Ki was found to be 148 nM. As for `O=c1cc(-c2ccc(C(F)(F)F)cn2)ccn1-c1ccc2c3c([nH]c2c1)CCNCC3` [Example 9, 1-(1,2,3,4,5,6-Hexahydroazepino[4,5-b]indol-8-yl)-4-(5-(trifluoromethyl)pyridin-2-yl)pyridin-2(1H)-one dihydrochloride], the Ki came to 1370 nM.

Turning to `Cn1c2c(c3ccc(-n4ncc(OCc5ccc(F)cn5)cc4=O)cc31)CCNCC2` [Example 10, 5-((5-Fluoropyridin-2-yl)methoxy)-2-(6-methyl-1,2,3,4,5,6-hexahydroazepino[4,5-b]indol-8-yl)pyridazin-3(2H)-one dihydrochloride], the Ki worked out at 13.4 nM.

For `Cc1ccc(-c2ccn(-c3ccc4c5c(n(C)c4c3)CCNCC5)c(=O)c2)cn1` [Example 11, 1-(6-Methyl-1,2,3,4,5,6-hexahydroazepino[4,5-b]indol-8-yl)-4-(6-methylpyridin-3-yl)pyridin-2(1H)-one dihydrochloride], the Ki is 49 nM. Consider `O=c1cc(-c2ccc(C(F)(F)F)cc2)ccn1-c1ccc2c3c([nH]c2c1)CCNCC3` [Example 12, 1-(1,2,3,4,5,6-Hexahydroazepino[4,5-b]indol-8-yl)-4-(4-(trifluoromethyl)phenyl)pyridin-2(1H)-one hydrochloride], for which the Ki stood at 11.4 nM. `O=c1cc(OCc2ccc(F)cn2)ccn1-c1ccc2c3c([nH]c2c1)CCNCC3` [Example 13, 4-((5-Fluoropyridin-2-yl)methoxy)-1-(1,2,3,4,5,6-hexahydroazepino[4,5-b]indol-8-yl)pyridin-2(1H)-one dihydrochloride]: the Ki stood at 10.3 nM. In the case of `CC(C)N1CCc2c(n(C)c3cc(-n4ccc(OCc5ccc(F)cn5)cc4=O)ccc23)CC1` [Example 16, 4-((5-Fluoropyridin-2-yl)methoxy)-1-(3-isopropyl-6-methyl-1,2,3,4,5,6-hexahydroazepino[4,5-b]indol-8-yl)pyridin-2(1H)-one hydrochloride], the Ki was determined as 13.7 nM. To `Cl.Cn1c2c(c3ccc(-n4ccc(-c5ccc(C(F)(F)F)cn5)cc4=O)cc31)CCCNC2` [Example 20, 1-(10-Methyl-1,2,3,4,5,10-hexahydroazepino[3,4-b]indol-8-yl)-4-(5-trifluoromethyl)pyridin-2-yl)pyridin-2(1H)-one hydrochloride] belongs 242 nM; to `Cn1c2c(c3ccc(-n4ccc(OCc5ccc(F)cn5)cc4=O)cc31)CNCCC2` [Example 22, 4-((5-Fluoropyridin-2-yl)methoxy)-1-(6-methyl-1,2,3,4,5,6-hexahydroazepino[4,3-b]indol-8-yl)-)pyridin-2(1H)-one hydrochloride], 11.2 nM; to `Cn1c2c(c3ccc(-n4ccc(OCc5ccc(C(F)(F)F)nc5)cc4=O)cc31)CNCCC2` [Example 24, 1-(6-Methyl-1,2,3,4,5,6-hexahydroazepino[4,3-b]indol-8-yl)-4-((6-(trifluoromethyl)pyridin-3-yl)methoxy)pyridin-2(1H)-one hydrochloride], 6.4 nM. On to `Cn1c2c(c3ccc(-n4ccc(-c5cnc(C(F)(F)F)nc5)cc4=O)cc31)CNCCC2` [Example 25, 1-(6-Methyl-1,2,3,4,5,6-hexahydroazepino[4,3-b]indol-8-yl)-4-(2-(trifluoromethyl)pyrimdin-5-yl)pyridin-2(1H)-one hydrochloride], for which the Ki came out at 42.3 nM.

Take `Cl.Cn1c2c(c3ccc(-n4ccc(-c5ccc(C(F)(F)F)cc5)cc4=O)cc31)CNCCC2` [Example 26, 1-(6-Methyl-1,2,3,4,5,6-hexahydroazepino[4,3-b]indol-8-yl)-4(4-trifluoromethyl)phenyl)pyridin-2(1H)-one hydrochloride]: the Ki was determined as 6.1 nM. As for `CN1CCCc2c(c3ccc(-n4ccc(OCc5ccccc5)cc4=O)cc3n2C)C1` [Example 29, 4-(Benzyloxy)-1-(2,6-dimethyl-1,2,3,4,5,6-hexahydroazepino[4,3-b]indol-8-yl)pyridin-2(1H)-one hydrochloride], the inhibition constant Ki is 5 nM. As to `CCN1CCCc2c(c3ccc(-n4ccc(OCc5ccccc5)cc4=O)cc3n2C)C1` [Example 30, 4-(Benzyloxy)-1-(2-ethyl-6-methyl-1,2,3,4,5,6-hexahydroazepino[4,3-b]indol-8-yl)pyridin-2(1H)-one hydrochloride], the inhibitory constant (Ki) is 5 nM. The figure for `CC(C)N1CCCc2c(c3ccc(-n4ccc(OCc5ccccc5)cc4=O)cc3n2C)C1` [Example 31, 4-(Benzyloxy)-1-(2-isopropyl-6-methyl-1,2,3,4,5,6-hexahydroazepino[4,3-b]indol-8-yl)pyridin-2(1H)-one hydrochloride] is 9.4 nM. Turning to `Cc1ccc(COc2ccn(-c3ccc4c5c(n(C)c4c3)CCCNC5)c(=O)c2)cn1` [Example 34, 1-(6-Methyl-1,2,3,4,5,6-hexahydroazepino[4,3-b]indol-8-yl)-4-((6-methylpyridin-3-yl)methoxy)pyridin-2(1H)-one hydrochloride], the Ki was found to be 10.6 nM. On to `O=c1cc(OCc2ccccc2)ccn1-c1ccc2c3c([nH]c2c1)CCCNC3` [Example 35, 4-(Benzyloxy)-1-(1,2,3,4,5,6-hexahydroazepino[4,3-b]indol-8-yl)pyridin-2(1H)-one hydrochloride], for which the inhibition constant Ki is 5.8 nM. On to `Cn1c2c(c3ccc(-n4ncc(OCc5ccc(F)cn5)cc4=O)cc31)CNCCC2` [Example 39, 5-((5-Fluoropyridin-2-yl)methoxy)-2-(6-methyl-1,2,3,4,5,6-hexahydroazepino[4,3-b]indol-8-yl)pyridazin-3(2H)-one hydrochloride], for which the Ki worked out at 16.8 nM. With `Cl.Cn1c2c(c3ccc(-n4ccc(OCc5ccc(F)cn5)cc4=O)cc31)CCNCC2` [Example 40, 4-((5-Fluoropyridin-2-yl)methoxy-1-(6-methyl-1,2,3,4,5,6-hexahydroazepino[4,5-b]indol-8-yl)pyridin-2(1H)-one hydrochloride], the inhibition constant Ki came to 7.2 nM. `Cl.Cn1c2c(c3ccc(-n4ccc(-c5ccc(C(F)(F)F)cc5)cc4=O)cc31)CCNCC2` [Example 41, 1-(6-Methyl-1,2,3,4,5,6-hexahydroazepino[4,5-b]indol-8-yl)-4(4-trifluoromethyl)phenyl)pyridin-2(1H)-one hydrochloride]: the inhibition constant Ki stood at 10 nM. The figure for `CC(C)N1CCc2[nH]c3cc(-n4ccc(OCc5ccc(F)cn5)cc4=O)ccc3c2CC1` [Example 42, 4-((5-Fluoropyridin-2-yl)methoxy)-1-(3-isopropyl-1,2,3,4,5,6-hexahydroazepino[4,5-b]indol-8-yl)-pyridin-2(1H)-one hydrochloride] is 17.8 nM. Take `Cn1c2c(c3ccc(-n4ccc(OCc5ccccc5)cc4=O)cc31)CCNCC2` [Example 43, 4-(Benzyloxy)-1-(6-methyl-1,2,3,4,5,6-hexahydroazepino[4,5-b]indol-8-yl)pyridin-2(1H)-one hydrochloride]: the inhibitory constant (Ki) is 8.9 nM. In the case of `CN1CCc2c(n(C)c3cc(-n4ccc(OCc5ccccc5)cc4=O)ccc23)CC1` [Example 44, 4-(benzyloxy)-1-(3,6-dimethyl-1,2,3,4,5,6-hexahydroazepino[4,5-b]indol-8-yl)pyridin-2(1H)-one hydrochloride], the Ki came out at 11.6 nM.

The values above are taken from patent US8637501B2, “Azinone-substituted azepino[b]indole and pyrido-pyrrolo-azepine MCH-1 antagonists, methods of making, and use thereof” (Albany Molecular Research, Inc., priority 2009, dated 2014).
